Entries after “also recorded” stand apart in the source; their conditions may differ.
How the values were obtained:
[1] = tested on: Bacillus megaterium; experiment: antibiotic sensitivity screening test in petri dishes (minimum inhibitory concentration method); assay type: cell-based; details: MIC method, 10^-1 to 10^-5 mg/mL in medium, FIG. 1
Protocol: The bacterial culture medium (HuanKai Microbial, Guangzhou, China) containing peptone 5 g, beef extract 3 g, NaCl 5 g, agar 15 g, and MnSO4 5 mg in 1 L ddH2O (pH=7.2) was prepared in conical flask (Drtech, Guangzhou, China) and was sterilized in the autoclave (HIRAYAMA, HEV-50, Japan) at 121° C. for 30 min. Bacillus megaterium (total 1*10^7 per culture) was cultured in the incubator (HettCube 200, Germany) at 37° C. for 24 h.
To test whether antibiotics can control the growth of Bacillus megaterium in vitro and in vivo, we first carried out an antibiotic sensitivity screening test in petri dishes which were made in example 1. The sensitivity of Bacillus megaterium to several major antimicrobial agents including ampicillin, vancomycin, neomycin, metronidazole and tetracycline were examined using the minimum inhibitory concentration (MIC) method. Ampicillin, vancomycin, neomycin, metronidazole, and tetracycline (purchased from Sigma, USA) at various concentrations (10^−1, 10^−2, 10^−3, 10^−4, 10^−5 mg/mL) were added into cooled medium.

[2] = tested on: Bacillus megaterium; experiment: Bacillus megaterium subretinal inoculation model, bacteria-induced drusenoid pathology in retinal tissues; assay type: in vivo, Macaca fascicularis; details: intravitreous, 0.5 mg, one injection on Day 2 post bacterial inoculation; macaque; compared to control; FIG. 8
Protocol: The macaques were sedated by intramuscular injection of a mixture of tiletamine hydrochloride (2.5 mg/kg) and xolazepam hydrochloride (2.5 mg/kg). After instilling topical anesthesia (0.5% proparacaine hydrochloride), the eyes were immediately visualized in vivo using a light microscope. The pupils were then dilated with 0.5% tropicamide and 0.5% phenylephrine to obtain the fundus photographs. […] Under microscopic monitoring, 20 μl of PBS (with or without bacteria) was injected into the subretinal space between photo receptors and RPE (retinal pigment epithelium), using a NanoFil Syringe Nanofil-100 for Microinjection (World Precision Instruments, USA). All procedures were done using sterile instruments. The macaque was euthanized 47 days post inoculation and the eyeball was enucleated for histological analyses. The eyeballs were fixed in 4% paraformaldehyde for 48 h and then embedded in paraffin. Sections were cut on a microtome at 6 μm and stained with H&E.
We examined whether subretinal inoculation of AH and VH cultures, as well as the cultured single species of B. megaterium led to AMD like pathology in macaque. About 20 CFU of bacteria (in 20 μl PBS) from AH, VH, and B. megaterium cultures were injected subretinally and PBS was used as a control (illustrated in FIG. 6). […]

[3] = ocular complications after intraocular administration in monkey; assay type: in vivo; details: data not shown
Source text: Next, we used the Bacillus megaterium subretinal inoculation model to test whether antibiotics might be able to change the bacteria-induced drusenoid pathology in monkey retinal tissues.

For `Cc1ncc([N+](=O)[O-])n1CCO` [metronidazole], which “effectiveness in controlling the growth of Bacillus megaterium, fold less effective (relative to neomycin)” value [1] is on record?
Its value is 10000 fold.

Which “size of drusenoid lesion in retinal tissue” value [2] does the source give for `CN[C@H](CC(C)C)C(=O)N[C@H]1C(=O)N[C@@H](CC(N)=O)C(=O)N[C@H]2C(=O)N[C@H]3C(=O)N[C@H](C(=O)N[C@H](C(=O)O)c4cc(O)cc(O)c4-c4cc3ccc4O)[C@H](O)c3ccc(c(Cl)c3)Oc3cc2cc(c3O[C@@H]2O[C@H](CO)[C@@H](O)[C@H](O)[C@H]2O[C@H]2C[C@](C)(N)[C@H](O)[C@H](C)O2)Oc2ccc(cc2Cl)[C@H]1O` [vancomycin] here?
Its value is “reduction in the size of drusenoid lesion”.

What does the source list for neomycin?
ocular complications [3]: significant ocular complications including ophthalmatrophia; sensitivity of Bacillus megaterium to antimicrobial agent / in vitro activity controlling the expansion of Bacillus megaterium ([1]; 37° C. 24 h): most sensitive; also recorded: best in vitro activity
